Values quoted from earlier work, collected in US20090004360A1, “Taste Potentiator Compositions in Oral Delivery Systems” (CADBURY ADAMS USA LLC, priority 2007, published 2009).
Peptide text beside a SMILES is read from it.

Assays:
[1] = not given; remark: listed apart in the source

For `COC(=O)[C@H](Cc1ccccc1)NC(=O)[C@@H](N)CC(=O)O` [aspartame, L-aspartyl-L-phenylalanine methyl ester] (HELM PEPTIDE1{D.F.[CO[*:1]]}$$$$V2.0), the “sweetness relative to sucrose” value (recognized value, 0.05 g in 100 ml isosweet to 10 g sucrose in 100 ml) is given as 200 times.

For `O=C(O)c1cccc(O)c1` [Example 3-HB, 3-hydroxybenzoic acid], the “effect on sweetness of sucrose, aspartame and saccharin” value ([1]; pH 2.0 to 5.5, European Patent No. 0132444 and U.S. Pat. No. 4,627,987) is listed as “enhance sweetness”.

In the case of `O=C(O)c1ccc(O)cc1O` [2,4-DHB, 2,4-Dihydroxybenzoic acid], the “effect on sweetness of a sucrose solution” value ([1]; 0.2% added to a 5% sucrose solution, Canadian Patent No. 1208966) is listed as “increase in sweetness”, the “effect on the sweetness intensity of both sucralose and aspartame” value ([1]; FIGS. 1 and 2 and Tables 1 and 2 of U.S. Pat. No. 6,461,658) is listed as “slightly inhibitory effect” and the “effect on sweetness of aspartame” value ([1]; used with aspartame, WO99/15032) is listed as “increase sweetness synergistically”. For the same molecule, the “length of time during which sucralose sweetness is perceived” value ([1]; with sucralose, U.S. Pat. No. 6,461,658) was “significantly reducing the length of time”.

For `OCC(O)CO` [Glycerin], the “sweetness relative to cane sugar” value (in vivo) is listed as “about 60%”.
